Source: patent US9890152B2 (Genentech, Inc., priority 2012, dated 2018)
Counter-ions that a name gives are not always drawn.

Target: T1, EGFR del746-750 T790M (Homo sapiens, UniProt P00533, DEL746-750/T790M)
T1 construct: purchased Carna Biosciences 08-528
Test: EGFR del746-750 T790M biochemical assay (Caliper mobility shift)
Settings: 5 μM ATP, 30 min, room temperature; apparent Ki (Morrison) converted by Cheng-Prusoff, Km of ATP 2.1 μM; read-out: EGFR(T790M/d746-750) Ki

T1 sequence (P00533 with tags, fused parts or gaps DEL746-750/T790M limits assumed): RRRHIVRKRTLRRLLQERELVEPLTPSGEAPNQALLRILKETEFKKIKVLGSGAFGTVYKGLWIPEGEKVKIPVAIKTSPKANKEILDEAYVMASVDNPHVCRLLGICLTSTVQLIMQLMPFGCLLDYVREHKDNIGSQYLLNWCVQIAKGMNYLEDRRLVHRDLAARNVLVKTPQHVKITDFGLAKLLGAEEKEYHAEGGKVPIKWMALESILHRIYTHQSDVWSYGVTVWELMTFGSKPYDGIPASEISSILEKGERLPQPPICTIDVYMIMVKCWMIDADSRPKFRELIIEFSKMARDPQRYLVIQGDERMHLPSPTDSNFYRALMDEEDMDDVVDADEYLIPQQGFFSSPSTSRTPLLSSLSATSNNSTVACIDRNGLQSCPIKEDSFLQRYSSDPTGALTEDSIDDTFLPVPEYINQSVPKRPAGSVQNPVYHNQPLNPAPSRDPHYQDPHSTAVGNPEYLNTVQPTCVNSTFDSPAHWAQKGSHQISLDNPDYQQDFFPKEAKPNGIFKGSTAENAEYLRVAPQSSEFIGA

Compound | Ki
CC(C)n1c(CO)nc2cnc(Nc3ccnc(N4CC[C@](C)(O)[C@H](F)C4)n3)cc21 (racemic) [Example 619, (3RS,4SR)-3-Fluoro-1-[4-(2-hydroxymethyl-1-isopropyl-1H-imidazo[4,5-c]pyridin-6-ylamino)pyrimidin-2-yl]-4-methylpiperidin-4-ol] | 146 nM
CS[C@H]1CCN(c2nccc(Nc3cc4c(cn3)nc(CO)n4C(C)C)n2)C[C@H]1F (racemic) [Example 622, (±)-{6-[2-(cis-3-Fluoro-4-methylsulfanylpiperidin-1-yl)pyrimidin-4-ylamino]-1-isopropyl-1H-imidazo[4,5-c]pyridin-2-yl}methanol] | 170 nM
CC(C)n1c(CO)nc2cnc(Nc3ccnc(N4CC[C@@H](O)[C@H](C(F)(F)F)C4)n3)cc21 (racemic) [Example 627, (±)-(trans)-1-(4-(2-(Hydroxymethyl)-1-isopropyl-1H-imidazo[4,5-c]pyridin-6-ylamino)pyrimidin-2-yl)-3-(trifluoromethyl)piperidin-4-ol] | 1570 nM
CO[C@H]1CCN(c2nccc(Nc3cc4c(cn3)nc(CO)n4C(C)C)n2)C[C@H]1C(F)(F)F (racemic) [Example 628, (1-Isopropyl-6-(2-((±)-(cis)-4-methoxy-3-(trifluoromethyl)piperidin-1-yl)pyrimidin-4-ylamino)-1H-imidazo[4,5-c]pyridin-2-yl)methanol] | 1190 nM
CO[C@@H]1CCN(c2nccc(Nc3cc4c(cn3)nc(CO)n4C(C)C)n2)C[C@H]1C(F)(F)F (racemic) [Example 629, (1-Isopropyl-6-(2-((±)-(trans)-4-methoxy-3-(trifluoromethyl)piperidin-1-yl)pyrimidin-4-ylamino)-1H-imidazo[4,5-c]pyridin-2-yl)methanol] | 2960 nM
CC(C)n1c(CO)nc2cnc(Nc3ccnc(N4CC[C@@H](O)[C@H](C)C4)n3)cc21 (racemic) [Example 630, (±)-(trans)-1-(4-(2-(Hydroxymethyl)-1-isopropyl-1H-imidazo[4,5-c]pyridin-6-ylamino)pyrimidin-2-yl)-3-methylpiperidin-4-ol] | 202 nM
CC(C)n1c(CO)nc2cnc(Nc3ccnc(N4CC[C@H](O)[C@H](C)C4)n3)cc21 (racemic) [Example 631, (±)-(cis)-1-(4-(2-(Hydroxymethyl)-1-isopropyl-1H-imidazo[4,5-c]pyridin-6-ylamino)pyrimidin-2-yl)-3-methylpiperidin-4-ol] | 351 nM
CO[C@@H]1CCN(c2nccc(Nc3cc4c(cn3)nc(CO)n4C(C)C)n2)C[C@@H]1C (racemic) [Example 632, (1-Isopropyl-6-(2-((±)-(cis)-4-methoxy-3-methylpiperidin-1-yl)pyrimidin-4-ylamino)-1H-imidazo[4,5-c]pyridin-2-yl)methanol] | 326 nM
CC(C)n1c(CO)nc2cnc(Nc3ccnc(N4CC[C@@](O)(C5CC5)[C@H](F)C4)n3)cc21 (racemic) [Example 633, (3RS,4RS)-4-cyclopropyl-3-fluoro-1-(4-((2-(hydroxymethyl)-1-isopropyl-1H-imidazo[4,5-c]pyridin-6-yl)amino)pyrimidin-2-yl)piperidin-4-ol] | 210 nM
CCC(C)n1cc(C(=O)NC2CCOCC2)c2cnc(Nc3ccnc(N4CCC(C)(O)CC4)n3)cc21 (racemic) [Example 638, 1-(sec-butyl)-6-((2-(4-hydroxy-4-methylpiperidin-1-yl)pyrimidin-4-yl)amino)-N-(tetrahydro-2H-pyran-4-yl)-1H-pyrrolo[3,2-c]pyridine-3-carboxamide] | 14.9 nM
CCC(C)n1cc(C(=O)NC2CCOCC2)c2cnc(Nc3ccnc(N4CC[C@@H](O)[C@@H](F)C4)n3)cc21 (single isomer, unassigned) [Example 324] | 2.39 nM
CCC(C)n1cc(C(=O)NC2CCN(C3COC3)CC2)c2cnc(Nc3ccnc(N4CC[C@@H](OC)[C@@H](F)C4)n3)cc21 (single isomer, unassigned) [Example 325] | 3.35 nM
CCNC(=O)c1cn(C(C)CC)c2cc(Nc3ccnc(N4CC[C@@H](O)[C@@H](F)C4)n3)ncc12 (single isomer, unassigned) [Example 370] | 4.02 nM
CCC(C)n1cc(C(=O)NC2CCOCC2)c2cnc(Nc3ccnc(N4CC[C@@H](OC)[C@@H](F)C4)n3)cc21 (single isomer, unassigned) [Example 375] | 3.41 nM
CC(n1cc(C(=O)NC2CCOCC2)c2cnc(Nc3ccnc(N4CC[C@@H](O)[C@@H](F)C4)n3)cc21)C(F)(F)F (single isomer, unassigned) [Example 639] | 15 nM

Second part, the compound after the results:

Ki | Compound
115 nM | CS[C@H]1CCN(c2nccc(Nc3cc4c(cn3)nc(C)n4C(C)C)n2)C[C@H]1F (racemic) [Example 617, [2-(±)-(cis-3-Fluoro-4-methylsulfanylpiperidin-1-yl)pyrimidin-4-yl]-(1-isopropyl-2-methyl-1H-imidazo[4,5-c]pyridin-6-yl)amine]
236 nM | Cc1nc2cnc(Nc3ccnc(N4CC[C@H]([S+](C)[O-])[C@H](F)C4)n3)cc2n1C(C)C (mixture of isomers) [Example 618, [2-(±)-(cis-3-Fluoro-4-methanesulfinylpiperidin-1-yl)pyrimidin-4-yl]-(1-isopropyl-2-methyl-1H-imidazo[4,5-c]pyridin-6-yl)amine]
1250 nM | CC(C)n1c(CO)nc2cnc(Nc3ccnc(N4CC[C@H](O)[C@H](C(F)(F)F)C4)n3)cc21 (racemic) [Example 626, (±)-(cis)-1-(4-(2-(Hydroxymethyl)-1-isopropyl-1H-imidazo[4,5-c]pyridin-6-ylamino)pyrimidin-2-yl)-3-(trifluoromethyl)piperidin-4-ol]
146 nM | CO[C@@H]1CCN(c2nccc(Nc3cc4c(cn3)nc(CO)n4C(C)C)n2)C[C@@H]1Cl (racemic) [Example 634, (6-(2-((±)-(cis)-3-Chloro-4-methoxypiperidin-1-yl)pyrimidin-4-ylamino)-1-isopropyl-1H-imidazo[4,5-c]pyridin-2-yl)methanol]
3.45 nM | C[C@H](n1c(CO)nc2cnc(Nc3ccnc(N4CC[C@H](O)[C@H](F)C4)n3)cc21)C(C)(F)F (racemic) [Example 644, (±)-(cis)-1-(4-(1-((S)-3,3-Difluorobutan-2-yl)-2-(hydroxymethyl)-1H-imidazo[4,5-c]pyridin-6-ylamino)pyrimidin-2-yl)-3-fluoropiperidin-4-ol]
68.7 nM | CC(C)n1c(CO)nc2cnc(Nc3ccnc(N4CC[C@H](O)[C@](C)(F)C4)n3)cc21 (racemic) [Example 645, (3RS,4SR)-3-Fluoro-1-(4-((2-(hydroxymethyl)-1-isopropyl-1H-imidazo[4,5-c]pyridin-6-yl)amino)pyrimidin-2-yl)-3-methylpiperidin-4-ol]
3.72 nM | CCC(C)n1cc(C(=O)NC2CCOCC2)c2cnc(Nc3ccnc(N4C[C@@H](F)[C@@H](O)C(C)(C)C4)n3)cc21 (mixture of isomers) [Example 646, 1-sec-Butyl-6-(2-((±)-cis-5-fluoro-4-hydroxy-3,3-dimethylpiperidin-1-yl)pyrimidin-4-ylamino)-N-(tetrahydro-2H-pyran-4-yl)-1H-pyrrolo[3,2-c]pyridine-3-carboxamide]
393 nM | CC(C)n1c(CO)nc2cnc(Nc3ccnc(N4CC[C@H]([S+](C)[O-])[C@H](F)C4)n3)cc21 (relative stereo) [Example 623, {6-[2-(cis-3-Fluoro-4-methanesulfinylpiperidin-1-yl)pyrimidin-4-ylamino]-1-isopropyl-1H-imidazo[4,5-c]pyridin-2-yl}methanol]
3.41 nM | CCC(C)n1cc(C(=O)NC2CCOCC2)c2cnc(Nc3ccnc(N4CC[C@@H](O)[C@@H](F)C4)n3)cc21 (single isomer, unassigned) [Example 323]
3.83 nM | CCC(C)n1cc(C(=O)NC2CCN(C3COC3)CC2)c2cnc(Nc3ccnc(N4CC[C@@H](OC)[C@@H](F)C4)n3)cc21 (single isomer, unassigned) [Example 326]
4.12 nM | CC[C@@H](C)n1cc(C(=O)NC2CCOCC2)c2cnc(Nc3ccnc(N4CC[C@H](OC)[C@H](F)C4)n3)cc21 (single isomer, unassigned) [Example 339]
3.33 nM | CC[C@H](C)n1cc(C(=O)NC2CCOCC2)c2cnc(Nc3ccnc(N4CC[C@H](OC)[C@H](F)C4)n3)cc21 (single isomer, unassigned) [Example 340]
21.7 nM | C[C@H](n1c([C@@H](C)O)nc2cnc(Nc3ccnc(N4CC[C@@](C)(O)[C@@H](F)C4)n3)cc21)C(F)(F)F (single isomer, unassigned) [Example 621, (3R*,4S*)-3-Fluoro-1-{4-[2-((R)-1-hydroxyethyl)-1-((S)-2,2,2-trifluoro-1-methylethyl)-1H-imidazo[4,5-c]pyridin-6-ylamino]pyrimidin-2-yl}-4-methylpiperidin-4-ol]
15.3 nM | CC(n1cc(C(=O)NC2CCOCC2)c2cnc(Nc3ccnc(N4CC[C@@H](O)[C@@H](F)C4)n3)cc21)C(F)(F)F (single isomer, unassigned) [Example 640]
1.45 nM | CCC(C)n1cc(C(=O)NC2CCOCC2)c2cnc(Nc3ccnc(-c4cnn(S(=O)(=O)C5CC5)c4)n3)cc21 (single isomer, unassigned; (+)) [Example 321, (+)-1-(sec-Butyl)-6-((2-(1-(cyclopropylsulfonyl)-1H-pyrazol-4-yl)pyrimidin-4-yl)amino)-N-(tetrahydro-2H-pyran-4-yl)-1H-pyrrolo[3,2-c]pyridine-3-carboxamide]
63.3 nM | CNc1nc2cnc(Nc3ccnc(N4CCC(OC)CC4)n3)cc2n1C(C)C [Example 6, 1-Isopropyl-N^6-[2-(4-methoxypiperidin-1-yl)pyrimidin-4-yl]-N^2-methyl-1H-imidazo[4,5-c]pyridine-2,6-diamine]
417 nM | COC1CCN(c2nccc(Nc3cc4c(cn3)nc(CN(C)C)n4C(C)C)n2)CC1 [Example 9, (2-Dimethylaminomethyl-1-isopropyl-1H-imidazo[4,5-c]pyridin-6-yl)-[2-(4-methoxypiperidin-1-yl)pyrimidin-4-yl]amine formate salt]
63.2 nM | COC1CCN(c2nccc(Nc3cc4c(cn3)nc(CO)n4C(C)C)n2)CC1 [Example 10, {1-Isopropyl-6-[2-(4-methoxypiperidin-1-yl)pyrimidin-4-ylamino]-1H-imidazo[4,5-c]pyridin-2-yl}methanol]
